According to ChEMBL document CHEMBL5532635, “The role of natural anti-parasitic guided development of synthetic drugs for leishmaniasis” (Eur J Med Chem, 2023):
In brackets after ≈: the same amount, converted by molar mass.

Legend:
Leishmania major [1] = assay: Antileishmanial activity against Leishmania major promastigotes incubated for 24 hrs measured by alamar blue staining based fluorescence analysis; format: functional, organism-based
Leishmania infantum [2] = assay: Antileishmanial activity against Leishmania infantum MCAN/ES/89/IPZ229/1/89 axenic amastigotes assessed as reduction in parasite viability treated for 24 hrs by PI staining based flow cytometry; format: functional, organism-based; details: MCAN/ES/89/IPZ229/1/89, 24 h
Leishmania donovani [3] = assay: Antileishmanial activity against Leishmania donovani intracellular amastigotes assessed as parasite growth inhibition; format: functional, organism-based
Leishmania amazonensis [4] = assay: Antileishmanial activity against Leishmania amazonensis MHOM/BR/71973/M2269 promastigotes assessed as reduction in parasite growth incubated for 24 hrs by PI staining based flow cytometry analysis; format: functional, organism-based; details: MHOM/BR/71973/M2269, 24 h
Leishmania infantum [5] = assay: Antileishmanial activity against Leishmania infantum MHOM/BR/1972/BH46 promastigotes assessed as reduction in parasite growth incubated for 24 hrs by PI staining based flow cytometry analysis; format: functional, organism-based; details: MHOM/BR/1972/BH46, 24 h
Leishmania amazonensis [6] = assay: Antileishmanial activity against Leishmania amazonensis promastigotes assessed as inhibition of parasite growth measured after 72 hrs by alamar blue assay; format: functional, organism-based
Leishmania infantum [7] = assay: Antileishmanial activity against Leishmania infantum MCAN/ES/89/IPZ229/1/89 promastigote measured after 72 hrs by MTT assay; format: functional, organism-based; details: MCAN/ES/89/IPZ229/1/89, 72 h
Leishmania amazonensis [8] = assay: Antileishmanial activity against Leishmania amazonensis amastigotes assessed as reduction in parasite growth measured after 24 hrs by MTT assay; format: functional, organism-based
Leishmania major [9] = assay: Antileishmanial activity against Leishmania major IR-173 promastigotes assessed as inhibition of parasite viability incubated for 72 hrs by resazurin/alamar blue fluorometric assay; format: functional
Arginase = Arginase (Leishmania amazonensis, UniProt O96394); assay: Inhibition of Leishmania amazonensis Arginase expressed in Escherichia coli BL21 (DE3)
Leishmania donovani [10] = assay: Antileishmanial activity against Leishmania donovani promastigotes assessed as reduction in parasite growth incubated for 72 hrs by MTT assay; format: functional, organism-based
[11] = Antileishmanial activity against Leishmania donovani MHOM/IN/95/9515 promastigotes assessed as inhibition of parasite viability incubated for 72 hrs by resazurin/alamar blue fluorometric assay; format: functional
Leishmania donovani [12] = assay: Antileishmanial activity against Leishmania donovani promastigotes at 50 uM; format: functional
Leishmania donovani [13] = assay: Antileishmanial activity against Leishmania donovani promastigotes at 25 uM; format: functional
Leishmania donovani [14] = assay: Immunosuppressive activity in Leishmania donovani assessed as inhibition of PGE2 production; format: functional, organism-based
Leishmania donovani [15] = assay: Antileishmanial activity against Leishmania donovani promastigotes; format: functional, organism-based
Leishmania donovani [16] = assay: Antileishmanial activity against Leishmania donovani amastigotes; format: functional, organism-based
[17] = Inhibition of recombinant Leishmania mexicana Trypanothione reductase

With `CCOC(=O)C1=C(C)NC(C)=C(C(=O)OCC)C1c1cccc(Cl)c1` the EC50 (Leishmania major [1]) was 15.5 µM.

With `Cn1c(=O)c2c(c3ccccc31)OC(C)(C)[C@H]1CC[C@@](C)(O)[C@H](Cl)[C@H]21` the IC50 (Leishmania infantum [2]) was greater than 6.25 µM.

For `CCCCCCCCNCc1ccc2c(c1)C(=O)CC(C)(C)O2`, the IC50 (Leishmania donovani [3]) was 24.6 µM.

With `CCCc1cc(OC)c2oc(=O)c(C(=O)c3ccc([N+](=O)[O-])cc3)cc2c1` the IC50 (Leishmania amazonensis [4]) was 26.7 µM, the IC50 (Leishmania infantum [5]) was 3.53 µM and the IC50 (Leishmania amazonensis [6]) was 18 µM. The IC50 (Leishmania infantum [7]) was 6.8 µM and the IC50 (Leishmania amazonensis [8]) was 18 µM.

`O=C(Cn1cnc2ccccc2c1=O)N1CCC2(CC1)OCCO2` gave an Activity (Leishmania major [9]) of 35%.

`O=C(CCc1ccc(O)c(O)c1)O[C@H](Cc1ccc(O)cc1)C(=O)O` gave an IC50 (Arginase) of 5.5 µM.

`CCOC(=O)C1=CNC(=S)NC1c1ccc(C)cc1` (stereo not drawn) gave an IC50 (Leishmania donovani [10]) of 28.3 µg/mL (≈ 102 µM).

Work on `O=C(Cn1cnc2cc(Cl)ccc2c1=O)n1cnc2cc(Cl)ccc2c1=O` yielded an Activity [11] of 29%.

`COc1ccc2c(c1)O/C(=C/c1cc(O)cc(O)c1)C2=O` showed an Activity (Leishmania donovani [12]) of 108%, an Activity (Leishmania donovani [13]) of 105% and an IC50 (Leishmania donovani [14]) of 5.9 µM.

With `O=C1/C(=C/c2ccc(O)c(O)c2)Oc2cc(O)ccc21` [SULFURETIN] the EC50 (Leishmania donovani [15]) was 4.58 µM and the EC50 (Leishmania donovani [16]) was 0.33 µM.

For `C[C@H]1[C@H](C)CC[C@]2(C(=O)O)CC[C@]3(C)C(=CC[C@@H]4[C@@]5(C)CC[C@H](O)C(C)(C)[C@@H]5CC[C@]43C)[C@H]12` [URSOLIC ACID], the IC50 [17] was 7.03 µM.
